Test results: publication PMC4105567, “Aurora Kinases as Druggable Targets in Pediatric Leukemia: Heterogeneity in Target Modulation Activities and Cytotoxicity by Diverse Novel Therapeutic Agents” (PLoS ONE, 2014)
Read-outs that look alike come from different tables or passages of the source.

Tests used:
[1] = tested on: Patient #1 B-ALL primary leukemia cells; test: Cytotoxicity assay, primary sample Patient #1; format: cell-based, human; settings: Homo sapiens, 96 h, four days in culture, Alamar blue assay or automated microscopy, one complete study
Method: (§1) These include B-ALL (Patient #1), relapsed AML (Patient #2), AML/CML (Patient #3), infant ALL (Patient #4), and initial ALL presenting with secondary AML (Patient #5). […] The diluted sample was then layered on a Ficoll-Paque (GE Healthcare, Piscataway, New Jersey) gradient at a 1∶2 ratio of Ficoll to diluted sample. Samples were then centrifuged 1800 rpm for 20 minutes at room temperature. The buffy coat was removed with a pipette and transferred to a new centrifuge tube and diluted with PBS. After an additional centrifugation at 1200 rpm, the white blood cell pellet was washed with PBS and centrifuged one last time. Cells were re-suspended in Opti-MEM and viable cells were counted using trypan blue (Invitrogen, Life Technologies Corporation, Burlington, Ontario) exclusion on a haemocytometer. An identical protocol was followed for the isolation of white blood cells, referred to as “normal lymphocytes” in the following paragraphs, from healthy volunteers. Samples grown in culture for up to six months were cultured in Opti-MEM medium supplemented with 10% heat inactivated FBS, penicillin/streptomycin and 2-mercaptoethanol.
(§2) For cytotoxicity profiling of Aurora kinase inhibitors against leukemia cell lines, inhibitors or vehicle control (DMSO, Sigma-Aldrich) were diluted in 100 µl of Opti-MEM per well in 96 well plates (Grenier Bio-One, Monroe, North Carolina) in triplicate at final concentrations ranging from 1×10^−6 to 10 µM. 1×10^4 cells per well were seeded and plates were incubated for 4 days. Following incubation for 4 days, cell survival was quantified by Alamar blue assay (Invitrogen) or automated inverted microscopy using the Celigo Cell Cytometer (Cyntellect, San Diego, California). […] During this period of incubation, the absorbance at 570–620 nm was measured (Opsys MR Plate Reader, Dynex Technologies, Chantilly, Virginia) at various time points, depending on the cell line or sample. Percent survival was calculated by comparing the absorbance ratio of the test well to the control well multiplied by 100%, as indicated in the following formula: […]
(§3) For automated inverted microscopy, the number of cells in each well was determined using the direct cell counting application as described previously. Briefly, following adjustment of image acquisition settings for bright-field imaging, the wells containing cells and appropriate dilutions of inhibitors were individually scanned. Based on these images, analysis parameters, including intensity threshold and cell diameter, were modified for optimal inclusion of viable cells in treated and control wells. These parameters were applied for subsequent replicates involving the same leukemia cell line or sample. The percent survival was then calculated as a ratio of the number of cells in treated wells to the number of cells in control wells multiplied by 100%. Given that Aurora kinase inhibitors interfere with cytokinesis, cells that are committed to death may still contain enlarging but intact cytoplasmic content before the eventual loss of cytoplasmic membrane integrity. The accuracy of Alamar blue assay may be, in theory, affected by the timing of these events.

Normal Lymphocytes = test: Cytotoxicity assay, normal lymphocytes; format: cell-based, human; settings: Homo sapiens, Lymphocyte, 96 h; normal lymphocytes (control for non-leukemia cytotoxicity); four days in culture; ± SD, three experiments
Method: as §1, §2, §3

B1 B-ALL cell line = test: Cytotoxicity assay, B1; format: cell-based, human; settings: Homo sapiens, 96 h, four days in culture, Alamar blue assay or automated microscopy, ± SD, three experiments
Method: (§4) Cell lines were cultured in Opti-MEM medium (Gibco, Life Technologies Corporation, Burlington, Ontario) supplemented with 10% heat inactivated fetal bovine serum (FBS) (Gibco), 100 units/ml penicillin and 100 units/ml streptomycin (Gibco) and 0.05 mM 2-mercaptoethanol (Sigma-Aldrich, Oakville, Ontario) in T25 flasks (Nalge Nunc, Rochester, New York) or T75 flasks (Corning Incorporated, Corning, New York). All cell cultures were maintained at 37°C in a humidified incubator with 5% CO2.
as §2, §3

Aurora-C = settings: read-out: Targets (IC50 Value): Aurora-C; literature values; ref [10],[40],[44]–[64] as listed per inhibitor in Table 1; cited from earlier work
NB4 APML cell line = test: Cytotoxicity assay, NB4; format: cell-based, human; settings: Homo sapiens, 96 h, four days in culture, Alamar blue assay or automated microscopy, ± SD, three experiments
Method: as §4, §2, §3

[2] = tested on: Patient #4 infant leukemia primary cells; test: Cytotoxicity assay, primary sample Patient #4; format: cell-based, human; settings: Homo sapiens, 96 h, four days in culture, Alamar blue assay or automated microscopy, one complete study
Method: as §1, §2, §3

KOPN8 B-ALL cell line = test: Cytotoxicity assay, KOPN8; format: cell-based, human; settings: Homo sapiens, KOPN-8, 96 h, four days in culture, Alamar blue assay or automated microscopy, ± SD, three experiments
Method: as §4, §2, §3

HL-60 RA APML cell line = test: Cytotoxicity assay, HL-60 RA; format: cell-based, human; settings: Homo sapiens, 96 h; APML cell line HL-60 RA; four days in culture; Alamar blue assay or automated microscopy; ± SD, three experiments
Method: as §4, §2, §3

MV4-11 AML cell line = test: Cytotoxicity assay, MV4-11; format: cell-based, human; settings: Homo sapiens, 96 h; AML cell line MV4-11; four days in culture; Alamar blue assay or automated microscopy; ± SD, three experiments
Method: as §4, §2, §3

C1 B-ALL cell line = test: Cytotoxicity assay, C1; format: cell-based, human; settings: Homo sapiens, 96 h, four days in culture, Alamar blue assay or automated microscopy, ± SD, three experiments
Method: as §4, §2, §3

Molt-3 T-ALL cell line = test: Cytotoxicity assay, Molt-3; format: cell-based, human; settings: Homo sapiens, 96 h; T-ALL cell line Molt-3; four days in culture; Alamar blue assay or automated microscopy; ± SD, three experiments
Method: as §4, §2, §3

Molm13 AML cell line = test: Cytotoxicity assay, Molm13; format: cell-based, human; settings: Homo sapiens, MOLM-13, 96 h, four days in culture, Alamar blue assay or automated microscopy, ± SD, three experiments
Method: as §4, §2, §3

Bone Marrow Stroma = test: Cytotoxicity assay, bone marrow stroma; format: cell-based, human; settings: Homo sapiens, 96 h; bone marrow stroma (control for non-leukemia cytotoxicity); four days in culture; ± SD, three experiments
Method: as §2, §3

Nalm6 B-ALL cell line = test: Cytotoxicity assay, Nalm6; format: cell-based, human; settings: Homo sapiens, NALM-6, 96 h, four days in culture, Alamar blue assay or automated microscopy, ± SD, three experiments
Method: as §4, §2, §3

[3] = tested on: Patient #2 relapsed AML primary leukemia cells; test: Cytotoxicity assay, primary sample Patient #2; format: cell-based, human; settings: Homo sapiens, 96 h, four days in culture, Alamar blue assay or automated microscopy, one complete study
Method: as §1, §2, §3

[4] = tested on: Patient #5 ALL/AML primary leukemia cells; test: Cytotoxicity assay, primary sample Patient #5; format: cell-based, human; settings: Homo sapiens, 96 h, read-out: IC50, Patient #5 ALL/AML
Method: as §1, §2, §3

[5] = tested on: normal cells versus leukemia cell lines; test: Comparison of cytotoxicity IC50 values, normal cells versus leukemia cell lines; format: cell-based, human; settings: normal lymphocytes and bone marrow stroma versus leukemia cell lines of Table 2
Method: as §2, §3

SEM B-ALL cell line = test: Cytotoxicity assay, SEM; format: cell-based; settings: Homo sapiens, 96 h, four days in culture, Alamar blue assay or automated microscopy, ± SD, three experiments
Method: as §4, §2, §3

HL-60 APML cell line = test: Cytotoxicity assay, HL-60; format: cell-based, human; settings: Homo sapiens, 96 h; APML cell line HL-60; four days in culture; Alamar blue assay or automated microscopy; ± SD, three experiments
Method: as §4, §2, §3

CEM T-ALL cell line = test: Cytotoxicity assay, CEM; format: cell-based, human; settings: Homo sapiens, 96 h, four days in culture, Alamar blue assay or automated microscopy, ± SD, three experiments
Method: as §4, §2, §3

[6] = tested on: Patient #3 AML/CML primary leukemia cells; test: Cytotoxicity assay, primary sample Patient #3; format: cell-based, human; settings: Homo sapiens, 96 h, four days in culture, Alamar blue assay or automated microscopy, one complete study
Method: as §1, §2, §3

UOCB1 B-ALL cell line = test: Cytotoxicity assay, UOCB1; format: cell-based, human; settings: Homo sapiens, UoC-B1, 96 h, four days in culture, Alamar blue assay or automated microscopy, ± SD, three experiments
Method: as §4, §2, §3

TIB-202 AML cell line = test: Cytotoxicity assay, TIB-202; format: cell-based, human; settings: Homo sapiens, 96 h; AML cell line TIB-202; four days in culture; Alamar blue assay or automated microscopy; ± SD, three experiments
Method: as §4, §2, §3

[7] = primary sample, four days in culture, Alamar blue assay or automated microscopy, one complete study

Structure (SMILES)	IC50 [1] [µM]	IC50 (Normal Lymphocytes) [µM]	IC50 (B1 B-ALL cell line) [µM]	IC50 (NB4 APML cell line) [µM]	IC50 [2] [µM]	IC50 (KOPN8 B-ALL cell line) [µM]	IC50 (HL-60 RA APML cell line) [µM]	IC50 (MV4-11 AML cell line) [µM]	IC50 (C1 B-ALL cell line) [µM]	IC50 (Molt-3 T-ALL cell line) [µM]	IC50 (Molm13 AML cell line) [µM]	IC50 (Bone Marrow Stroma) [µM]	IC50 (Nalm6 B-ALL cell line) [µM]	IC50 [3] [µM]	IC50 values for the normal cells compared with IC50 values for the leukemia cell lines (potential therapeutic window) [5]	IC50 (SEM B-ALL cell line) [µM]	IC50 (HL-60 APML cell line) [µM]	IC50 (CEM T-ALL cell line) [µM]	IC50 [6] [µM]	IC50 (UOCB1 B-ALL cell line) [µM]	also measured
Cc1nc(N)sc1-c1ccnc(Nc2ccc(N3CCOCC3)cc2)n1 [CYC116]	0.01	> 10	1 ± 0.6	3 ± 2	> 10	1 ± 0.6	0.3 ± 0.08	0.005 ± 0.004	0.2 ± 0.1	0.07 ± 0.02	0.4 ± 0.2	5 ± 2	0.5 ± 0.3	0.07	lower than the IC50 values for the normal cells, but not as pronounced	0.1 ± 0.004	7 ± 3	0.07 ± 0.009	> 10	0.2 ± 0.09	IC50 (Aurora-C): 0.069 µM; IC50 [4, 7]: 0.0004 µM; IC50 (TIB-202 AML cell line): 0.6 ± 0.05 µM
Cc1cc(Nc2cc(N3CCN(C)CC3)nc(/C=C/c3ccccc3)n2)n[nH]1 [ENMD-2076]	0.1	5 ± 3	1 ± 0.3	1 ± 0.6	10	0.6 ± 0.3	0.7 ± 0.2	0.001 ± 0.0001	0.7 ± 0.2	0.8 ± 0.05	0.04 ± 0.02	3 ± 1	0.2 ± 0.1	0.008	lower than the IC50 values for the normal cells, but not as pronounced	0.5 ± 0.4	0.7 ± 0.09	0.6 ± 0.05	4	1 ± 0.5	IC50 [4, 7]: 0.03 µM; IC50 (TIB-202 AML cell line): 0.8 ± 0.2 µM
Nc1nc(Nc2ccc(S(N)(=O)=O)cc2)nn1C(=O)c1c(F)cccc1F [JNJ-7706621]	1	7 ± 0.5	1 ± 0.1	2 ± 0.9	8	0.4 ± 0.08	0.8 ± 0.1	0.8 ± 0.09	1 ± 0.5	0.7 ± 0.1	2 ± 0.6	7 ± 0.8	1 ± 0.1	0.7	lower than the IC50 values for the normal cells, but not as pronounced	0.7 ± 0.3	5 ± 2	0.3 ± 0.2	> 10	0.2 ± 0.09	IC50 [4]: 0.0005 µM; IC50 (TIB-202 AML cell line): 3 ± 1 µM
